Test [1] addresses GST-Syk Full Protein (human) (Homo sapiens, UniProt P43405). The experiment in a line: Syk kinase inhibition test (HTRF method). The format is biochemical. A digest of the protocol:
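Human GST-Syk full-length (6.4 nM) phosphorylated biotin-EDPDYEWPSA-NH2 (250 nM) with 100 μM ATP in HEPES pH 7.0/MgCl2 buffer, 2% DMSO, 30 min at room temperature. EDTA stop, then HTRF detection (streptavidin-XL665, Eu anti-phosphotyrosine) after 1 h; 665/620 ratio read.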
In general terms: Time-resolved FRET reads energy transfer from a long-lived donor to a nearby acceptor.

Test [2] relates to cultured human mast cells. In words: Degranulation inhibition test using cultured human mast cells (IgE cross-linking, β-Hexosaminidase release). The following applies: Mast cell, cultured human mast cells, read-out: human degranulation ave. IC50. Format: cell-based. The gist of the method:
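CD34+ cord-blood cells cultured ≥8 weeks with SCF/IL-6/IL-3; FcεRI primed 5 days with rhIL-4 (1 ng/mL) and hIgE (0.5 μg/mL). Compound (0.1% DMSO) preincubated 10 min at 37 °C, then anti-IgE (final 10 μg/mL) 30 min; released β-hexosaminidase read at 405 nm versus total lysate, IC50 (M).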

The mark [3] stands for this setting: HTRF, 100 μM ATP, 30 min room temperature, average, read-out: sykHTRF ave IC50.
The mark [4] stands for this setting: anti-hIgE stimulation, β-Hexosaminidase index, average.
The mark [5] stands for this setting: Tables 2-x, thiophene compounds B, read-out: sykHTRK ave IC50.
[6] abbreviates: Tables 2-x, thiophene compounds B.
[7] abbreviates: Tables 1-x, compounds A, read-out: sykHTRF ave IC50.

pIC50: −log10 of the molar value. Structures can show the parent of a compound that is named as a salt. Where two headings read alike, the source gives them in different places. A value given as a limit tells only on which side of the number the result lay.

As a reminder, the pIC50 is −log10 of the IC50, conventionally taken in molar units.

In the case of `COC(=O)CCN(Cc1ncc(-c2cccc(Nc3cc(C)ccn3)n2)s1)C(C)=O` [Compound A-164], the pIC50 is 6.00 to 7.00 in test [1] (setting [3]) and below 6.00 in test [2] (setting [4]).

On to `CC(=O)c1ccc(-c2cccc(Nc3ccc(C)cn3)n2)s1` [Compound B-76], for which the pIC50 in test [1] (setting [5]) and in test [2] (setting [6]) was below 6.00 in each case.

Take `CC(=O)NC[C@H]1CC[C@H](c2ncc(-c3cccc(Nc4cc(C)ccn4)n3)s2)CC1` [Compound A-228, N-(trans-4-{5-[6-(4-methylpyridin-2-ylamino)pyridin-2-yl]thiazol-2-yl}cyclohexylmethyl)acetamide]: the pIC50 in test [1] (setting [3]) is above 7.00; in test [2] (setting [4]) it was 6.00 to 7.00.

As for `Cc1ccnc(Nc2cccc(-c3cnc([C@H]4CC[C@H](C(=O)N5C[C@H](O)C[C@@H](O)C5)CC4)s3)n2)c1` [Compound A-226], the negative logarithm of the IC50 (pIC50) in test [1] (setting [3]) and in test [2] (setting [4]) was 6.00 to 7.00 throughout.

For the compound `Cc1ccnc(Nc2cccc(-c3cnc(CCC4CCN(S(C)(=O)=O)CC4)s3)n2)c1` [Compound A-260, N-(6-{2-[2-(1-methanesulfonylpiperidin-4-yl)ethyl]thiazol-5-yl}pyridin-2-yl)-N-(4-methylpyridin-2-yl)amine], the pIC50 in test [1] (setting [3]) was above 7.00; in test [2] (setting [4]) it was 6.00 to 7.00.

For the compound `Cc1ccnc(Nc2cccc(-c3cnc(N(C)Cc4ccc(CC(=O)O)cc4)s3)n2)c1` [Compound A-587, {4-[(N-methyl-N-{5-[6-(4-methylpyridin-2-ylamino)pyridin-2-yl]thiazol-2-yl}amino)methyl]phenyl}acetic acid dihydrochloride], the pIC50 in test [1] (setting [7]) was above 7.00; in test [2] (Tables 1-x, compounds A) it was 6.00 to 7.00.

Turning to `CNCc1ccc(-c2cccc(Nc3cc(C)ccn3)n2)s1` [Compound B-25], the results for the pIC50 in test [1] (setting [5]) and in test [2] (setting [6]) were 6.00 to 7.00 and below 6.00, respectively.

Regarding `Cc1ccnc(Nc2cccc(-c3cnc([C@H]4CC[C@H](C(=O)N5CC[C@@H](O)C5)CC4)s3)n2)c1` [Compound A-241, ((R)-3-hydroxypyrrolidin-1-yl)-(trans-4-{5-[6-(4-methylpyridin-2-ylamino)pyridin-2-yl]thiazol-2-yl}cyclohexyl)metanone], the pIC50 in test [1] (setting [3]) is above 7.00; in test [2] (setting [4]) it was below 6.00.

Take `O=C(O)Cc1ccnc(Nc2cccc(-c3cnc([C@@H]4CCC(=O)N4)s3)n2)c1` [Compound A-340]: the pIC50 in test [1] (setting [3]) and in test [2] (setting [4]) was 6.00 to 7.00 in each case.

For `CN[C@@H](C)c1ncc(-c2cccc(Nc3cc(C)ccn3)n2)s1` [Compound A-51], the pIC50 in test [1] (setting [3]) and in test [2] (setting [4]) was 6.00 to 7.00 each time.

For `Cc1ccnc(Nc2cccc(-c3cnc(CN4C(=O)COCC4=O)s3)n2)c1` [Compound A-387], the pIC50 was 6.00 to 7.00 in test [1] (setting [7]) and 6.00 to 7.00 in test [2] (Tables 1-x, compounds A).

For the compound `Cc1ccnc(Nc2cccc(-c3cnc([C@H](CCCCNC(=O)OC(C)(C)C)NC(=O)OCc4ccccc4)s3)n2)c1` [Compound A-49], the negative-log IC50 (pIC50) in test [1] (setting [3]) and in test [2] (setting [4]) was below 6.00 throughout.

Take `Cc1ccnc(Nc2cccc(-c3cnc(N4CCSCC4)s3)n2)c1` [Compound A-418]: the negative-log IC50 (pIC50) is 6.00 to 7.00 in test [1] (setting [7]) and 6.00 to 7.00 in test [2] (Tables 1-x, compounds A).

Consider `Cc1ccnc(Nc2cccc(-c3cnc(N(C)Cc4ccc(C(=O)O)cc4)s3)n2)c1` [Compound A-574, 4-[(N-methyl-N-{5-[6-(4-methylpyridin-2-ylamino)pyridin-2-yl]thiazol-2-yl}amino)methyl]benzoic acid dihydrochloride], for which the negative logarithm of the IC50 (pIC50) in test [1] (setting [7]) is above 7.00; in test [2] (Tables 1-x, compounds A) it was 6.00 to 7.00.

For `CC(=O)N1CCC(N(CCO)c2ncc(-c3cccc(Nc4cc(C)ccn4)n3)s2)CC1` [Compound A-525, 1-[4-(N-(2-hydroxyethyl)-N-{5-[6-(4-methylpyridin-2-ylamino)pyridin-2-yl]thiazol-2-yl}amino)piperidin-1-yl]ethanone], the negative-log IC50 (pIC50) in test [1] (setting [7]) is above 7.00; in test [2] (Tables 1-x, compounds A), 6.00 to 7.00.

In the case of `Cc1ccnc(Nc2cccc(-c3cnc([C@@H]4CCCN4)s3)n2)c1` [Compound A-42], the negative-log IC50 (pIC50) in test [1] (setting [3]) was 6.00 to 7.00; in test [2] (setting [4]) it was below 6.00.

Take `Cc1ccnc(Nc2cccc(-c3cnc(N4CCN(C(=O)CO)CC4)s3)n2)c1` [Compound A-439, 2-hydroxy-1-(4-{5-[6-(4-methylpyridin-2-ylamino)pyridin-2-yl]thiazol-2-yl}piperazin-1-yl)ethanone]: the pIC50 was above 7.00 in test [1] (setting [7]) and above 7.00 in test [2] (Tables 1-x, compounds A).

`Cc1ccnc(Nc2cccc(-c3cnc(N4CCN(CC(=O)O)CC4)s3)n2)c1` [Compound A-589, (4-{5-[6-(4-methylpyridin-2-ylamino)pyridin-2-yl]thiazol-2-yl}piperazin-1-yl)acetic acid dihydrochloride]: the pIC50 is above 7.00 in test [1] (setting [7]) and below 6.00 in test [2] (Tables 1-x, compounds A).

For the compound `Cc1ccnc(Nc2cccc(-c3cnc(C4CCN(C(=O)C5CCNCC5)CC4)s3)n2)c1` [Compound A-292], the pIC50 in test [1] (setting [3]) was 6.00 to 7.00; in test [2] (setting [4]), below 6.00.

As to `C[C@H](N)c1ncc(-c2cccc(Nc3cc(-c4ccncc4)ccn3)n2)s1` [Compound A-75, N-{6-[2-((S)-1-aminoethyl)thiazol-5-yl]pyridin-2-yl}-N-([4,4′]bipyridinyl-2-yl)amine], the figures for the pIC50 in test [1] (setting [3]) and in test [2] (setting [4]) were above 7.00 and 6.00 to 7.00, respectively.

In the case of `CC(=O)N[C@@H](C)c1ncc(-c2cccc(Nc3cc(C)ccn3)n2)s1` [Compound A-10, N—((S)-1-{5-[6-(4-methylpyridin-2-ylamino)pyridin-2-yl]thiazol-2-yl}ethyl)acetamide], the negative-log IC50 (pIC50) in test [1] (setting [3]) and in test [2] (setting [4]) was 6.00 to 7.00 throughout.

In the case of `Cc1ccnc(Nc2cccc(-c3ccc(C(=O)N4CCC(O)CC4)s3)n2)c1` [Compound B-79], the pIC50 in test [1] (setting [5]) and in test [2] (setting [6]) was 6.00 to 7.00 in each case.

As to `CC(=O)c1ccnc(Nc2cccc(-c3ccc(C(C)=O)s3)n2)c1` [Compound B-83], the pIC50 in test [1] (setting [5]) and in test [2] (setting [6]) was 6.00 to 7.00 throughout.

Turning to `Cc1ccnc(Nc2cccc(-c3cnc(COC(=O)N4CCOCC4)s3)n2)c1` [Compound A-346], the pIC50 in test [1] (setting [3]) and in test [2] (setting [4]) was 6.00 to 7.00 throughout.

For `CC(=O)Nc1nc([C@H](C)NC(C)=O)sc1-c1cccc(Nc2cc(C)ccn2)n1` [Compound A-119], the pIC50 in test [1] (setting [3]) and in test [2] (setting [4]) was below 6.00 throughout.

In the case of `O=C(O)[C@@H]1CCCN(c2ncc(-c3cccc(Nc4cc(Cl)ccn4)n3)s2)C1` [Compound A-546, (R)-1-{5-[6-(4-chloropyridin-2-ylamino)pyridin-2-yl]thiazol-2-yl}piperidine-3-carboxylic acid], the pIC50 in test [1] (setting [7]) is above 7.00; in test [2] (Tables 1-x, compounds A) it was 6.00 to 7.00.

`Cc1ccnc(Nc2cccc(-c3cnc([C@H]4CC[C@H](CNC(=O)CO)CC4)s3)n2)c1` [Compound A-235, 2-hydroxy-N-(trans-4-{5-[6-(4-methylpyridin-2-ylamino)pyridin-2-yl]thiazol-2-yl}cyclohexylmethyl)acetamide]: the pIC50 in test [1] (setting [3]) was above 7.00; in test [2] (setting [4]), 6.00 to 7.00.

As to `CC(=O)NCC1CCN(c2ncc(-c3cccc(Nc4cc(C)ccn4)n3)s2)CC1` [Compound A-487, N-(1-{5-[6-(4-methylpyridin-2-ylamino)pyridin-2-yl]thiazol-2-yl}piperidin-4-ylmethyl)acetamide], the pIC50 was above 7.00 in test [1] (setting [7]) and 6.00 to 7.00 in test [2] (Tables 1-x, compounds A).

Consider `CC(=O)c1ccc(-c2cccc(Nc3cc(OCCO)ccn3)n2)s1` [Compound B-73, 1-(5-{6-[4-(2-hydroxyethoxy)pyridin-2-ylamino]pyridin-2-yl}thiophen-2-yl)ethanone], for which the pIC50 in test [1] (setting [5]) was above 7.00; in test [2] (setting [6]) it was 6.00 to 7.00.

With `Cc1ccnc(Nc2cccc(-c3ccc(C(=O)NCCC(=O)O)s3)n2)c1` [Compound B-98], the results for the negative logarithm of the IC50 (pIC50) in test [1] (setting [5]) and in test [2] (setting [6]) were 6.00 to 7.00 and below 6.00, respectively.

Consider `Cc1ccnc(Nc2cccc(-c3cnc(CCc4cccc(C(=O)O)c4)s3)n2)c1` [Compound A-276], for which the negative-log IC50 (pIC50) in test [1] (setting [3]) is 6.00 to 7.00; in test [2] (setting [4]), below 6.00.

For the compound `Cc1ccnc(Nc2cccc(-c3cnc([C@H](C)NC(=O)C4CCC(O)CC4)s3)n2)c1` (some centres unmarked) [Compound A-349], the pIC50 is 6.00 to 7.00 in test [1] (setting [3]) and below 6.00 in test [2] (setting [4]).

In the case of `Cc1ccnc(Nc2cccc(-c3cnc(N4CCC(CC(=O)O)CC4)s3)n2)c1` [Compound A-15, (1-{5-[6-(4-methylpyridin-2-ylamino)pyridin-2-yl]thiazol-2-yl}piperidin-4-yl)acetic acid dihydrochloride], the values for the pIC50 in test [1] (setting [3]) and in test [2] (setting [4]) were above 7.00 and 6.00 to 7.00, respectively.

Take `CC(=O)N[C@@H](Cc1ccc(OCCO)cc1)c1ncc(-c2cccc(Nc3cc(C)ccn3)n2)s1` [Compound A-140]: the pIC50 in test [1] (setting [3]) was 6.00 to 7.00; in test [2] (setting [4]) it was below 6.00.

In the case of `CC(=O)NC1CCN(C(=O)[C@H]2CC[C@H](c3ncc(-c4cccc(Nc5cc(C)ccn5)n4)s3)CC2)C1` (some centres unmarked) [Compound A-284], the negative-log IC50 (pIC50) in test [1] (setting [3]) and in test [2] (setting [4]) was 6.00 to 7.00 in each case.

Consider `Cc1ccnc(Nc2cccc(-c3cnc(CCN)s3)n2)c1` [Compound A-245], for which the pIC50 in test [1] (setting [3]) and in test [2] (setting [4]) was 6.00 to 7.00 each time.

On to `Cc1ccnc(Nc2cccc(-c3cnc(N4CCC(C(C)C(=O)O)CC4)s3)n2)c1` (centres unmarked) [Compound A-652, 2-(1-{5-[6-(4-methylpyridin-2-ylamino)pyridin-2-yl]thiazol-2-yl}piperidin-4-yl)propionic acid], for which the pIC50 in test [1] (setting [7]) was above 7.00; in test [2] (Tables 1-x, compounds A), above 7.00.
